Reference: patent US20230320994A1, “FUNCTIONAL IONIZABLE PHOSPHOLIPIDS” (The Board of Regents of The University of Texas System, priority 2020, published 2023)

Test system: C57BL/6 mice
Assay: In vivo tolerability: kidney and liver function markers
Conditions: 24 hours post injection, compared with PBS
Experimental: 10A1P16-MDOA (spleen specific) iPLNPs were administrated intravenously (IV) to C57BL/6 mice (0.25 mg kg−1). Lipopolysaccharide (LPS, 5 mg kg−1, IP) was used as the positive control and PBS (IV) was examined as the negative control. 24 hours post injection, kidney function (BUN and CREA) and liver function (ALT and AST) were evaluated. […] Data are presented as mean±s.d. (n=3 biologically independent mice). Statistical significance was analyzed by the two-tailed unpaired t-test: ****, P<0.0001; ***, P<0.001; **, P<0.01; *, P<0.05.

Lipopolysaccharide [LPS]
kidney function (BUN and CREA) and liver function (ALT and AST): severe kidney and liver injury
